From ChEMBL document CHEMBL1201862, “PubChem BioAssay data set” (2004)
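Five compound concentrations were applied to cells in 96-well plates for 48 hours; endpoints were derived by simple linear interpolation of the resulting dose-response curve. The concentration for 50% growth inhibition is given as GI50.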 Calls of active or inactive are those of the source. No stated cut-off is given here; in the data, active = GI50 up to about 1.1 µM and inactive = higher. Non-standard residues stand in square brackets, D forms with d. Residues, ends and D or L forms follow the SMILES beside them. *: point of attachment. Bn2Val = CC(C)[C@@H](C(=O)*)N(Cc1ccccc1)Cc1ccccc1; NMeV = CN[C@H](C(=O)O)C(C)C; X32 = COc1ccc(CN*)c(OC)c1; dNMeA = CN[C@H](C)C(=O)O

How the values were obtained:
Assay in all cases: NCI-60 cell line screen, 48 h
SK-MEL-2 = test system: SK-MEL-2
SW-620 = test system: SW-620
IGROV-1 = test system: IGROV-1
HCT-116 = test system: HCT-116
MDA-MB-231 = test system: MDA-MB-231
SK-MEL-5 = test system: SK-MEL-5
OVCAR-8 = test system: OVCAR-8
PC-3 = test system: PC-3
MDA-MB-435 = test system: MDA-MB-435
T47D = test system: T47D
ACHN = test system: ACHN
EKVX = test system: EKVX
BT-549 = test system: BT-549
UACC-257 = test system: UACC-257
NCI/ADR-RES = test system: NCI/ADR-RES
SNB-19 = test system: SNB-19
NCI-H226 = test system: NCI-H226
HOP-92 = test system: HOP-92
HOP-62 = test system: HOP-62

Compound	GI50 (SK-MEL-2)	GI50 (SW-620)	GI50 (IGROV-1)	GI50 (HCT-116)	GI50 (MDA-MB-231)	GI50 (SK-MEL-5)	GI50 (OVCAR-8)	GI50 (PC-3)	GI50 (MDA-MB-435)	GI50 (T47D)	GI50 (ACHN)	GI50 (EKVX)	GI50 (BT-549)	GI50 (UACC-257)	GI50 (NCI/ADR-RES)	GI50 (SNB-19)	GI50 (NCI-H226)	GI50 (HOP-92)	GI50 (HOP-62)
Cc1nc(O)c2c3c(sc2n1)CCCC3	> 100 µM (inactive)	> 100 µM (inactive)	> 100 µM (inactive)	36.7 µM (inactive)	> 100 µM (inactive)	> 100 µM (inactive)	> 100 µM (inactive)	> 100 µM (inactive)	> 100 µM (inactive)	> 100 µM (inactive)	54.5 µM (inactive)	19.9 µM (inactive)	> 100 µM (inactive)	> 100 µM (inactive)	> 100 µM (inactive)	> 100 µM (inactive)	> 100 µM (inactive)	> 100 µM (inactive)	> 100 µM (inactive)
Cc1ccnc2c1ccc1nc3ccccc3n12	> 100 µM (inactive)	> 100 µM (inactive)	25.5 µM (inactive)	28.1 µM (inactive)	54.7 µM (inactive)	17.7 µM (inactive)	28.9 µM (inactive)	> 100 µM (inactive)	> 100 µM (inactive)	18.5 µM (inactive)	–	1.88 µM (inactive)	63.5 µM (inactive)	> 100 µM (inactive)	37.8 µM (inactive)	–	18.4 µM (inactive)	85.1 µM (inactive)	89.7 µM (inactive)
CC(=O)c1c(O)cc(O)c(-c2c(C)cc(O)c3c2C(=O)c2cccc(O)c2C3=O)c1O	15.9 µM (inactive)	18.7 µM (inactive)	11.6 µM (inactive)	15.4 µM (inactive)	25.1 µM (inactive)	–	14.7 µM (inactive)	11 µM (inactive)	16.7 µM (inactive)	4.95 µM (inactive)	12.9 µM (inactive)	16.1 µM (inactive)	17.5 µM (inactive)	19.9 µM (inactive)	15.8 µM (inactive)	21 µM (inactive)	18.3 µM (inactive)	11.8 µM (inactive)	14.9 µM (inactive)
O=C(C[C@@H]1NCCC[C@H]1O)Cn1cnc2cc(Br)c(Cl)cc2c1=O	0.0148 µM (active)	0.0259 µM (active)	0.0296 µM (active)	0.023 µM (active)	0.0284 µM (active)	0.0153 µM (active)	< 0.0117 µM (active)	0.0351 µM (active)	0.012 µM (active)	0.0246 µM (active)	0.0233 µM (active)	0.0244 µM (active)	0.0347 µM (active)	0.0336 µM (active)	0.0416 µM (active)	0.0204 µM (active)	< 0.0115 µM (active)	0.0304 µM (active)	0.0279 µM (active)
COc1cc([C@@H]2c3cc4c(cc3[C@@H](OC3OC5COC(C)OC5C(OC(=O)CN5CCN(C)CC5)C3OC(=O)CN3CCN(C)CC3)C3COC(=O)[C@@H]32)OCO4)cc(OC)c1OC(=O)CN1CCN(C)CC1 (stereo partly drawn)	> 100 µM (inactive)	41.8 µM (inactive)	72.3 µM (inactive)	25.5 µM (inactive)	54.3 µM (inactive)	43.5 µM (inactive)	60.8 µM (inactive)	> 100 µM (inactive)	> 100 µM (inactive)	71.1 µM (inactive)	54.5 µM (inactive)	> 100 µM (inactive)	34.4 µM (inactive)	> 100 µM (inactive)	29.9 µM (inactive)	78.7 µM (inactive)	50.4 µM (inactive)	> 100 µM (inactive)	40.2 µM (inactive)
CS(=O)(=O)Nc1ccc2c(c1)N(S(C)(=O)=O)CC2COS(C)(=O)=O (stereo not drawn)	19.9 µM (inactive)	32.2 µM (inactive)	> 100 µM (inactive)	54.6 µM (inactive)	> 100 µM (inactive)	18.9 µM (inactive)	94.4 µM (inactive)	> 100 µM (inactive)	> 100 µM (inactive)	> 100 µM (inactive)	35.7 µM (inactive)	> 100 µM (inactive)	50.4 µM (inactive)	> 100 µM (inactive)	> 100 µM (inactive)	–	> 100 µM (inactive)	33.2 µM (inactive)	31.1 µM (inactive)
CCCCOC(=O)c1cc(C(=CCC[C@H]2CC[C@@]3(C)[C@@H](CC[C@@H]4[C@@H]3CC[C@]3(C)[C@@H](C(C)CCCC(C)C)CC[C@@H]43)C2)c2cc(Cl)c(O)c(C(=O)OCCCC)c2)cc(Cl)c1O (stereo partly drawn)	> 50 µM (inactive)	> 50 µM (inactive)	> 50 µM (inactive)	> 50 µM (inactive)	> 50 µM (inactive)	> 50 µM (inactive)	> 50 µM (inactive)	> 50 µM (inactive)	> 50 µM (inactive)	> 50 µM (inactive)	–	> 50 µM (inactive)	> 50 µM (inactive)	–	> 50 µM (inactive)	> 50 µM (inactive)	> 50 µM (inactive)	> 50 µM (inactive)	> 50 µM (inactive)
O=CNc1ccccc1OCCOc1ccccc1NC=O	> 100 µM (inactive)	> 100 µM (inactive)	> 100 µM (inactive)	> 100 µM (inactive)	> 100 µM (inactive)	> 100 µM (inactive)	> 100 µM (inactive)	> 100 µM (inactive)	> 100 µM (inactive)	> 100 µM (inactive)	> 100 µM (inactive)	> 100 µM (inactive)	> 100 µM (inactive)	> 100 µM (inactive)	> 100 µM (inactive)	> 100 µM (inactive)	> 100 µM (inactive)	> 100 µM (inactive)	> 100 µM (inactive)
CCN(CC)CCC(=O)c1ccc(Oc2ccc(C)cc2)cc1	33.2 µM (inactive)	18.7 µM (inactive)	20.1 µM (inactive)	17.3 µM (inactive)	16.9 µM (inactive)	–	19.8 µM (inactive)	17.9 µM (inactive)	18 µM (inactive)	18.2 µM (inactive)	21.1 µM (inactive)	20 µM (inactive)	18 µM (inactive)	19.2 µM (inactive)	23 µM (inactive)	18.5 µM (inactive)	35.2 µM (inactive)	23.7 µM (inactive)	19.1 µM (inactive)
COc1ccc2nc(NC(=O)/C(C#N)=C/c3ccccc3)sc2c1	> 100 µM (inactive)	46.9 µM (inactive)	29.4 µM (inactive)	24.7 µM (inactive)	> 79.8 µM (inactive)	20.8 µM (inactive)	> 51.6 µM (inactive)	> 61 µM (inactive)	24.5 µM (inactive)	30.1 µM (inactive)	35.6 µM (inactive)	38.4 µM (inactive)	52.2 µM (inactive)	27 µM (inactive)	> 39 µM (inactive)	> 100 µM (inactive)	> 58.2 µM (inactive)	32.7 µM (inactive)	> 64.1 µM (inactive)
CC#CC(O)(C(=O)OCCCN(C)C)C1CCCCC1 (stereo not drawn)	> 100 µM (inactive)	> 100 µM (inactive)	> 100 µM (inactive)	> 100 µM (inactive)	> 100 µM (inactive)	> 100 µM (inactive)	> 100 µM (inactive)	> 100 µM (inactive)	> 100 µM (inactive)	> 100 µM (inactive)	> 100 µM (inactive)	> 100 µM (inactive)	> 100 µM (inactive)	> 100 µM (inactive)	> 100 µM (inactive)	> 100 µM (inactive)	> 100 µM (inactive)	> 100 µM (inactive)	> 100 µM (inactive)
CC12O[C@]3([C@H](C(=O)N4CCOC43C)[C@H]1Cl)[C@H]1O[C@H]12 (stereo partly drawn)	> 100 µM (inactive)	> 100 µM (inactive)	> 100 µM (inactive)	> 100 µM (inactive)	> 100 µM (inactive)	> 100 µM (inactive)	> 100 µM (inactive)	> 100 µM (inactive)	> 100 µM (inactive)	> 100 µM (inactive)	> 100 µM (inactive)	> 100 µM (inactive)	> 100 µM (inactive)	> 100 µM (inactive)	> 100 µM (inactive)	> 100 µM (inactive)	> 100 µM (inactive)	> 100 µM (inactive)	> 100 µM (inactive)
Cc1ccnc2nc(-c3ccc(Cl)cc3)cc(O)c12	72.4 µM (inactive)	3.35 µM (inactive)	3.01 µM (inactive)	4.46 µM (inactive)	14.8 µM (inactive)	3.13 µM (inactive)	> 27 µM (inactive)	2.89 µM (inactive)	0.578 µM (active)	> 24.5 µM (inactive)	> 24.9 µM (inactive)	29.7 µM (inactive)	> 100 µM (inactive)	> 100 µM (inactive)	3.88 µM (inactive)	19.1 µM (inactive)	5.16 µM (inactive)	2.17 µM (inactive)	8.41 µM (inactive)
COc1ccc(CNC(=O)[C@@H]2CCCN2C(=O)[C@@H](C)N(C)C(=O)[C@H](C(C)C)N(C)C(=O)[C@@H](NC(=O)[C@H](C(C)C)N(Cc2ccccc2)Cc2ccccc2)C(C)C)c(OC)c1 (Bn2Val-V[NMeV][dNMeA]P-X32)	1.77 µM (inactive)	3.5 µM (inactive)	3.4 µM (inactive)	3.13 µM (inactive)	1.51 µM (inactive)	–	6.41 µM (inactive)	2.9 µM (inactive)	2.61 µM (inactive)	10.6 µM (inactive)	3.75 µM (inactive)	2.69 µM (inactive)	2.56 µM (inactive)	3.44 µM (inactive)	2.97 µM (inactive)	3.4 µM (inactive)	5.41 µM (inactive)	2.74 µM (inactive)	4.91 µM (inactive)
